{
  "source": "patent US12258377B2",
  "about": "(Scancell Limited, priority 2012, dated 2025)",
  "key": {"splenocytes [1]": {"system": "splenocytes", "experiment": "Ex vivo elispot assay on splenocytes of immunised HLA-DR1 / HLA-A2/DR1 (HHDII/DR1) transgenic mice", "type": "in vivo", "method": "(§1) C57BL/6 mice (Charles River, UK), HLA-DR4 mice (Taconic, USA), HHDII mice (Pasteur institute, France) and HHDII/DRI mice (Pasteur institute, France) were used, aged between 8 and 12 weeks, and cared for by the staff at Nottingham Trent University. All work was carried out under a Home Office project license. Peptides were dissolved in 10% Dimethylformamide to 1 mg/ml and then emulsified (a series of dilutions) with different adjuvants: CpG and MPLA 6 μg/mouse of each (Invivogen, UK), Incomplete Freund's […] (Sigma, UK), and GMCSF 10 μg/mouse (Peprotech, UK). Peptides (25 μg/mouse) were injected subcutaneously at the base of the tail. DNA (1 μg/mouse) was coated onto 1.0 μm gold particles (BioRad, Hemel Hempstead, UK) using the manufacturer's instructions and administered intradermally by genegun (BioRad). Homspera (10 nM/mouse) (PeptideSynthetics, UK) was injected intradermally with genegun immunisation. Mice were immunized at either day 0 for peptide immunisation or days, 0, 7, and 14 for peptide and genegun immunisation. Spleens were removed for analysis at day 14 for peptide and day 20 for peptide or genegun immunisation unless stated otherwise. 400 μg Anti-CD25 antibody (PC61) was administered i.p. in saline 3 days prior to the immunisation. 200 μg Anti-CTLA-4 antibody (UC 10-4F, 10-11) was administered i.p. in saline at day 7 and 14 with either genegun or peptide immunisation.\n(§2) Elispot assays were performed using murine IFNγ, IL-17 and IL-10 capture and detection reagents according to the manufacturer's instructions (Mabtech, Sweden). In brief, anti-IFNγ, IL-17 and IL-10 antibodies were coated onto wells of 96-well Immobilin-P plate. Synthetic peptides (at a variety of concentrations) and 5×10^5 per well splenocytes were added to the wells of the plate in triplicate. Tumour target cells were added where relevant at 5×10^4/well in triplicate and plates incubated for 40 hrs at 37° C. After incubation, captured IFNγ, […], IL-17 and IL-10 were detected by biotinylated anti-IFNγ, IL-17 and IL-10 antibodies and developed with a strepatavidin alkaline phosphatase and chromogenic substrate. Spots were analysed and counted using an automated plate reader (Cellular Technologies Ltd). Functional avidity was calculated as the concentration mediating 50% maximal effector function using a graph of effector function versus peptide concentration."}, "splenocytes [2]": {"system": "splenocytes", "experiment": "Ex vivo elispot assay on splenocytes of immunised C57B1 mice", "type": "in vivo, C57BL/6 mice", "settings": "combination of 3 citrullinated peptides (3×10 μg) with CpG and MPLA; day 14; C57B1/6 mice", "method": "as §1, §2"}, "splenocytes [3]": {"system": "splenocytes", "experiment": "Ex vivo elispot assay on splenocytes of immunised HLA-DR4 transgenic mice", "type": "in vivo", "settings": "for IFNg elispot response to citrullinated peptide over unmodified peptide or background control: citrullinated peptides 25 ug s.c. in CpG and MPLA, FIG. 34; for IL-10 elispot responses: against wild type and citrullinated peptides; for IFNγ elispot response to wild type peptide, mean / IFNγ elispot response to citrullinated peptide, mean: day 14 splenocytes; for IFNγ elispot response against vimentin 28-49 triple, double and single citrullinated peptides: peptide immunisation, FIG. 11", "method": "as §1, §2"}, "PBMC": {"system": "PBMC", "experiment": "Proliferation assay of PBMC from cancer patients", "type": "cell-based, human", "settings": "PBMC stimulated with 10 μg/ml peptide for 4, 7 and 11 days, 3H-thymidine", "method": "PBMC were isolated from freshly drawn heparinised blood by Ficol-Hypaque (Sigma) gradient centrifugation. PBMC (1.5×10^6 cells/well) were stimulated with single peptides (final concentration 10 μg/ml) in RPMI containing 5% pooled autologous human serum, 2 mM glutamine, 20 mM HEPES and Penicillin-streptomycin (1%) in a final volume of 2 ml. Stimulation with purified protein derivative, PPD (final concentration 10 μg/ml) served as a positive control for the proliferative capacity of PBMC. As a negative control PBMC were incubated with medium alone. The PBMC were cultured at 37° C. in an atmosphere of 5% CO2 for 4, 7 and 11 days. To assess proliferation at these times points 100 μl in triplicate from each culture was aliquoted into a round bottom well of a 96 well plate and ^3H-thymidine added (0.0185 MBq/well) and incubated at 37° C. for a further 8 hours. The cultures were harvested onto unifilter plates and incorporation of ^3H-thymidine was determined by β-scintillation counting. The results were assessed by calculating the stimulation index (SI) as the ratio of the mean of counts per minute (cpm) of epitope-stimulated to the mean of unstimulated cultures. The proliferative assay was considered positive when SI >2.5."}, "splenocytes [4]": {"system": "splenocytes", "experiment": "Ex vivo elispot assay on splenocytes of immunised HLA-DR1 / HLA-A2/DR1 (HHDII/DR1) transgenic mice", "type": "in vivo", "settings": "combination of 3 citrullinated peptides (3×10 μg) with CpG and MPLA; day 14; HLA-DR1 transgenic mice"}, "B16F1-DR4 cells": {"system": "B16F1-DR4 cells", "experiment": "Tumour challenge with B16F1-DR4 cells", "type": "in vivo, HLA-DR4 transgenic mice", "settings": "peptide 25 μg in CpG and MPLA s.c. or DNA via gene gun, days 4, 11, 18; versus unimmunised control", "method": "For tumour challenge experiments mice were challenged with 2.5×10^4 B16 HHDII NYESO/TAP2 siβ2m 1F10 cells or B16 DR4 2E7 cells subcutaneously on the right flank 3 days prior to primary immunisation and then were immunised as above. Anti-IFNγ antibody (300 μg/dose), anti-IL-17 antibody (200 μg/dose) and anti-HLA-DR antibody (300 μg/dose) were administered i.p. in saline at days 2, 7, 11 and 14 post tumour implant. Anti-CD4 antibody (500 μg/dose) was administered i.p.in saline at days 2 and 8 post tumour implant. Tumour growth was monitored at 3-4 days intervals and mice were humanely euthanized once tumour reached ≥10 mm in diameter."}, "[5]": {"settings": "25 μg in MPLA and CPG s.c. days 0, 7, 14, HLA-DR1 transgenic mice"}, "[6]": {"settings": "25 μg peptide with CpG and MPLA day 0, day 14"}, "[7]": {"settings": "25 μg peptide with CpG and MPLA day 0, day 14, peptide 5 μM"}, "[8]": {"settings": "25 μg peptide with CpG and MPLA day 0, peptide 5 μM"}, "[9]": {"settings": "25 μg peptide with CpG and MPLA day 0, day 14, recall peptide not specified"}},
  "note": "Square brackets hold non-standard residues; d marks the D form. Ends that are not written are not given here. Cit = NC(=O)NCCC[C@H](N)C(=O)O",
  "data": [
    {"substance": "AQKKLKLVRTSPEYGMP", "values": [
      {"measurement": "immune response after immunisation", "setting": "splenocytes [1]; HLA-DR1 transgenic mice", "result": "failed to stimulate any immune response"}
    ]},
    {"substance": "AQKKLKLVcitTSPEYGMP (AQKKLKLV[Cit]TSPEYGMP)", "values": [
      {"measurement": "IFNγ/IL-17 response to the citrullinated peptide, mean", "setting": "splenocytes [1]; [5]", "result": 200, "unit": "spots/million splenocytes"},
      {"measurement": "IFNγ/IL-17 response to the wild type peptide", "setting": "splenocytes [1]; [5]", "result": "no response"},
      {"measurement": "response in presence of MHC class II blocking mab", "setting": "splenocytes [1]; IFNγ elispot, HLA-A2/DR1 mice", "result": "blocked"}
    ]},
    {"substance": "EAENTLQSFRQDVDNASLA [Vimentin 20]", "values": [
      {"measurement": "IL-17 response, screening of citrullinated 20 mer peptides", "setting": "splenocytes [2]", "result": "~400", "unit": "spots/million splenocytes"}
    ]},
    {"substance": "EKLQEEMLQREEAENTLQS [Vimentin 19]", "values": [
      {"measurement": "IL-17 response, screening of citrullinated 20 mer peptides", "setting": "splenocytes [2]", "result": "~400", "unit": "spots/million splenocytes"}
    ]},
    {"substance": "KLATEYMSSARSLSSEEK [ING4 44-58]", "values": [
      {"measurement": "IFNg elispot response to citrullinated peptide over unmodified peptide or background control", "setting": "splenocytes [3]", "result": "significant responses"}
    ]},
    {"substance": "LPNFSSLNLRETNLDSLPL [wild type vim 415-433 peptide]", "values": [
      {"measurement": "patients showing a proliferative response (SI >2.5)", "setting": "PBMC", "result": "8/11"},
      {"measurement": "patients showing a proliferative response (SI >2.5)", "setting": "PBMC; listed as unmodified vim 415", "result": "Six of eleven"},
      {"measurement": "IL-10 response, mean", "setting": "splenocytes [3]; 25 μg peptide in MPLA and CPG s.c., day 14, FIG. 30", "result": 580, "unit": "spots/million splenocytes"},
      {"measurement": "IL-10 elispot responses", "setting": "splenocytes [3]; [6]", "result": "No significant IL-10 responses"},
      {"measurement": "IL-2 elispot response to citrullinated peptide, mean", "setting": "splenocytes [3]; [7]", "result": "weak"},
      {"measurement": "IL-17 elispot response to wild type peptide, mean", "setting": "splenocytes [3]; [7]", "result": "failed to stimulate a significant IFNγ or IL-17 response"},
      {"measurement": "IFNγ elispot response to wild type peptide, mean", "setting": "splenocytes [3]; [8]", "result": "failed to stimulate a significant IFNγ or IL-17 response"}
    ]},
    {"substance": "RAPFDLFENRKKKNN [HSP90 346-360]", "values": [
      {"measurement": "IFNg elispot response to citrullinated peptide over unmodified peptide or background control", "setting": "splenocytes [3]", "result": "significant responses"}
    ]},
    {"substance": "RKKLSELLRYYTSASGDEMVSL [HSP90 456-477]", "values": [
      {"measurement": "IFNg elispot response to citrullinated peptide over unmodified peptide or background control", "setting": "splenocytes [3]", "result": "significant responses"}
    ]},
    {"substance": "RLRSSVPGVRLLQDSVDFS [Vimentin 10]", "values": [
      {"measurement": "IL-17 response, screening of citrullinated 20 mer peptides", "setting": "splenocytes [4]", "result": 350, "unit": "spots/million splenocytes"}
    ]},
    {"substance": "RSYVTTSTRTYSLGSALRPSTS [wild type vim 28-49]", "values": [
      {"measurement": "patients showing a proliferative response (SI >2.5)", "setting": "PBMC", "result": "Two of eight"},
      {"measurement": "patients showing a proliferative response (SI >2.5)", "setting": "PBMC; listed as Wild type vim 28-49 peptide", "result": "2/11"},
      {"measurement": "IL-10 elispot responses", "setting": "splenocytes [3]; [6]", "result": "No significant IL-10 responses"},
      {"measurement": "IL-2 elispot responses", "setting": "splenocytes [3]; [9]", "result": "weak"},
      {"measurement": "IL-17 elispot responses", "setting": "splenocytes [3]; [9]", "result": "weak"},
      {"measurement": "IFNγ elispot response to citrullinated peptide, mean", "setting": "splenocytes [3]; [8]", "result": "1,100 /million splenocytes"},
      {"measurement": "IFNγ elispot response to wild type peptide, mean", "setting": "splenocytes [3]; [8]", "result": "700 /million splenocytes"},
      {"measurement": "anti-tumour response / survival", "setting": "B16F1-DR4 cells", "result": "anti-tumour response that almost reached significance"}
    ]},
    {"substance": "SAVRLRSSVPGVR [wild type vim 65-77 peptide]", "values": [
      {"measurement": "patients showing a proliferative response (SI >2.5)", "setting": "PBMC; listed as vim 65", "result": "Four out of eight"},
      {"measurement": "patients showing a proliferative response (SI >2.5)", "setting": "PBMC; listed as vim 65-77", "result": "4/9"},
      {"measurement": "IL-17 elispot response to citrullinated peptide, mean", "setting": "splenocytes [3]; [7]", "result": "weak"},
      {"measurement": "IL-17 elispot response to wild type peptide, mean", "setting": "splenocytes [3]; [7]", "result": "weak"},
      {"measurement": "IFNγ elispot response to citrullinated peptide, mean", "setting": "splenocytes [3]; [8]", "result": "weak"},
      {"measurement": "IFNγ elispot response to wild type peptide, mean", "setting": "splenocytes [3]; [8]", "result": "weak"}
    ]},
    {"substance": "VPAYFNDAQRQATKDA [BiP 172-186]", "values": [
      {"measurement": "IFNg elispot response to citrullinated peptide over unmodified peptide or background control", "setting": "splenocytes [3]", "result": "significant responses"}
    ]},
    {"substance": "Vim 28-49 only citrullinated at position 28: vimentin 28-49 peptide with citrulline only at position 28 ([Cit]SYVTTSTRTYSLGSALRPSTS; UniProt P08670 28-49, looked up, fragment)", "values": [
      {"measurement": "IFNγ elispot response against vimentin 28-49 triple, double and single citrullinated peptides", "setting": "splenocytes [3]", "result": "gave a response to the tri-citrullinated peptide and the Vim 45 citrullinated peptide"}
    ]},
    {"substance": "YSCVGVFKNGRVEII [BiP 39-53]", "values": [
      {"measurement": "IFNg elispot response to citrullinated peptide over unmodified peptide or background control", "setting": "splenocytes [3]", "result": "significant responses"}
    ]},
    {"substance": "mouse vim 415 cit: murine vimentin 415-433 citrullinated peptide (LPTFSSLNL[Cit]ETNLESLPL; UniProt P20152 415-433, looked up, fragment)", "values": [
      {"measurement": "influence of natural Treg depletion (anti-CD25 mAb) on the response", "setting": "splenocytes [3]; 25 μg peptide day 0, PC61 three days before, IFNγ elispot day 14", "result": "no influence on the frequency or the avidity of the response"}
    ]},
    {"substance": "vim 28 and 36 citrullinated peptide: vimentin 28-49 peptide citrullinated at positions 28 and 36 ([Cit]SYVTTST[Cit]TYSLGSALRPSTS; UniProt P08670 28-49, looked up, fragment)", "values": [
      {"measurement": "IFNγ elispot response against vimentin 28-49 triple, double and single citrullinated peptides", "setting": "splenocytes [3]", "result": "responded to the triple"}
    ]}
  ]
}
